Measured values published in patent publication US20160244437A1, “SUBSTITUTED PHENYLALANINE DERIVATIVES” (BAYER PHARMA AKTIENGESELLSCHAFT, priority 2013, published 2016).
Structures can show the parent of a compound that is named as a salt.

Assays:
[1] = molecular target: T1, human factor XIa (Homo sapiens, UniProt P03951); test: Measurement of FXIa inhibition (fluorogenic peptide substrate Boc-Glu(OBzl)-Ala-Arg-AMC); format: biochemical; details: factor XIa from Kordia 0.45 nM, 15 min pre-incubation, 30 min at 22° C., fluorescence
T1 construct: purchased Kordia

[2] = test system: human and animal plasma; test: Determination of anticoagulatory activity: activated partial thromboplastin time (aPTT) in plasma; details: concentration of test substance which brings about a 1.5-fold extension of the aPTT; plasma in vitro, C.K. Prest kit
How it was run: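 Citrated plasma (human, mouse, rat, rabbit, pig, dog) incubated with varying compound concentrations and cephalin/kaolin PTT reagent for 3 minutes at 37° C.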

T1 sequence (P03951 388-625 limits assumed): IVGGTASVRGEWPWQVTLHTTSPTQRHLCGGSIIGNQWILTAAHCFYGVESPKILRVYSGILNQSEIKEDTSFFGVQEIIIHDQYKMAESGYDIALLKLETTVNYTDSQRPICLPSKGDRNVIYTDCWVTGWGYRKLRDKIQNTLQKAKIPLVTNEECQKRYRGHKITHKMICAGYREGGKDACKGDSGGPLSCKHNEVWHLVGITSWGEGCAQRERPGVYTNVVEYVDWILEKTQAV
T1 sequence (P03951 19-387 partner limits assumed): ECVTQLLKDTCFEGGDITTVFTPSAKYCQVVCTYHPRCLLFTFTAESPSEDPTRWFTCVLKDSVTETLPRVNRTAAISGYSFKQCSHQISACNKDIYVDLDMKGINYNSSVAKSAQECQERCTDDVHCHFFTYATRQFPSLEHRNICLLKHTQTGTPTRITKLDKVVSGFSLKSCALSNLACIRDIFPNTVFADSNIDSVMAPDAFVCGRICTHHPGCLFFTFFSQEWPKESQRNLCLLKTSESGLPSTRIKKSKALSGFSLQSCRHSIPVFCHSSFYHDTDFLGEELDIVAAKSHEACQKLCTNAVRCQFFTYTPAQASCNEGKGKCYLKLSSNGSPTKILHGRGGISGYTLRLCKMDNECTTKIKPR

CN(C)CCCOc1ccc(-c2cccc(C[C@H](NC(=O)[C@H]3CC[C@H](CN)CC3)C(=O)Nc3ccc(-c4nnc(Cl)[nH]4)cc3)c2)cn1 [Example 90, N-alpha-{[trans-4-(Aminomethyl)cyclohexyl]carbonyl}-N-[4-(3-chloro-4H-1,2,4-triazol-5-yl)phenyl]-3-{6-[3-(dimethylamino)propoxy]pyridin-3-yl}-L-phenylalaninamide hydrochloride]
IC50 [1]: 5.8 nM
aPTT [2]: 0.08 µmol/L

NC[C@H]1CC[C@H](C(=O)N[C@@H](Cc2cccc(-c3cc(C(N)=O)ccc3Cl)c2)C(=O)Nc2ccc(-c3nnn[nH]3)cc2)CC1 [Example 38, 3′-[(2S)-2-({[trans-4-(Aminomethyl)cyclohexyl]carbonyl}amino)-3-oxo-3-{[4-(1H-tetrazol-5-yl)phenyl]amino}propyl]-6-chlorobiphenyl-3-carboxamide hydrochloride]
IC50 [1]: 4.8 nM
aPTT [2]: 0.2 µmol/L

NC[C@H]1CC[C@H](C(=O)N[C@@H](Cc2cccc(-c3cnccc3Cl)c2)C(=O)Nc2ccc(-c3noc(=O)[nH]3)cc2)CC1 [Example 107, N-alpha-{[trans-4-(Aminomethyl)cyclohexyl]carbonyl}-3-(4-chloropyridin-3-yl)-N-[4-(5-oxo-4,5-dihydro-1,2,4-oxadiazol-3-yl)phenyl]-L-phenylalaninamide hydrochloride]
IC50 [1]: 6.2 nM
aPTT [2]: 0.7 µmol/L

NC[C@H]1CC[C@H](C(=O)N[C@@H](Cc2cccc(-c3ccc(C(=O)NC4CCNCC4)cc3)c2)C(=O)Nc2ccc3cn[nH]c3c2)CC1 [Example 51, 3′-[(2S)-2-({[trans-4-(Aminomethyl)cyclohexyl]carbonyl}amino)-3-(1H-indazol-6-ylamino)-3-oxopropyl]-N-(piperidin-4-yl)biphenyl-4-carboxamide hydrochloride]
IC50 [1]: 36 nM
aPTT [2]: 0.33 µmol/L

Cc1cnccc1-c1cccc(C[C@H](NC(=O)[C@H]2CC[C@H](CN)CC2)C(=O)Nc2ccc(-c3nnn[nH]3)cc2)c1 [Example 80, N-alpha-{[trans-4-(Aminomethyl)cyclohexyl]carbonyl}-3-(3-methylpyridin-4-yl)-N-[4-(1H-tetrazol-5-yl)phenyl]-L-phenylalaninamide hydrochloride]
IC50 [1]: 2.4 nM
aPTT [2]: 0.25 µmol/L

CON(C)C(=O)c1ccc(F)c(-c2cccc(C[C@H](NC(=O)[C@H]3CC[C@H](CN)CC3)C(=O)Nc3ccc(-c4nnn[nH]4)cc3)c2)c1 [Example 45, 3′-[(2S)-2-({[trans-4-(Aminomethyl)cyclohexyl]carbonyl}amino)-3-oxo-3-{[4-(1H-tetrazol-5-yl)phenyl]amino}propyl]-6-fluoro-N-methoxy-N-methylbiphenyl-3-carboxamide hydrochloride]
IC50 [1]: 5.8 nM
aPTT [2]: 0.3 µmol/L

CN1CCN(C(=O)c2cccc(-c3cccc(C[C@H](NC(=O)[C@H]4CC[C@H](CN)CC4)C(=O)Nc4ccc(-c5nnc(Cl)[nH]5)cc4)c3)c2)CC1 [Example 24, trans-4-(Aminomethyl)-N-[(2S)-1-{[4-(3-chloro-4H-1,2,4-triazol-5-yl)phenyl]amino}-3-{3′-[(4-methylpiperazin-1-yl)carbonyl]biphenyl-3-yl}-1-oxopropan-2-yl]cyclohexanecarboxamide hydrochloride]
IC50 [1]: 4.3 nM
aPTT [2]: 0.15 µmol/L

NC[C@H]1CC[C@H](C(=O)N[C@@H](Cc2cccc(-c3cnc(N4CCNCC4)nc3)c2)C(=O)Nc2ccc(-c3nnn[nH]3)cc2)CC1 [Example 68, N-alpha-{[trans-4-(Aminomethyl)cyclohexyl]carbonyl}-3-[2-(piperazin-1-yl)pyrimidin-5-yl]-N-[4-(1H-tetrazol-5-yl)phenyl]-L-phenylalaninamide hydrochloride]
IC50 [1]: 7.3 nM
aPTT [2]: 0.18 µmol/L

Cc1ccc(S(=O)(=O)N2CCOCC2)cc1-c1cccc(C[C@H](NC(=O)[C@H]2CC[C@H](CN)CC2)C(=O)Nc2ccc3[nH]c(=O)[nH]c3c2)c1 [Example 10, trans-4-(Aminomethyl)-N-{(2S)-3-[2′-methyl-5′-(morpholin-4-ylsulphonyl)biphenyl-3-yl]-1-oxo-1-[(2-oxo-2,3-dihydro-1H-benzimidazol-5-yl)amino]propan-2-yl}cyclohexanecarboxamide hydrochloride]
IC50 [1]: 13 nM
aPTT [2]: 0.23 µmol/L

NC[C@H]1CC[C@H](C(=O)N[C@@H](Cc2cccc(-c3cccc(S(=O)(=O)NC4CC4)c3)c2)C(=O)Nc2ccc(-c3nnn[nH]3)cc2)CC1 [Example 6, trans-4-(Aminomethyl)-N-[(2S)-3-[3′-(cyclopropylsulphamoyl)biphenyl-3-yl]-1-oxo-1-{[4-(1H-tetrazol-5-yl)phenyl]amino}propan-2-yl]cyclohexanecarboxamide hydrochloride]
IC50 [1]: 1.9 nM
aPTT [2]: 0.27 µmol/L

CN(C)c1ncc(-c2cccc(C[C@H](NC(=O)[C@H]3CC[C@H](CN)CC3)C(=O)Nc3ccc(-c4nnc(Cl)[nH]4)cc3)c2)cn1 [Example 93, N-alpha-{[trans-4-(Aminomethyl)cyclohexyl]carbonyl}-N-[4-(3-chloro-4H-1,2,4-triazol-5-yl)phenyl]-3-[2-(dimethylamino)pyrimidin-5-yl]-L-phenylalaninamide hydrochloride]
IC50 [1]: 5.3 nM
aPTT [2]: 0.48 µmol/L

CN(C)CCNC(=O)c1cccc(-c2cccc(C[C@H](NC(=O)[C@H]3CC[C@H](CN)CC3)C(=O)Nc3ccc(-c4nnn[nH]4)cc3)c2)c1 [Example 39, 3′-[(2S)-2-({[trans-4-(Aminomethyl)cyclohexyl]carbonyl}amino)-3-oxo-3-{[4-(1H-tetrazol-5-yl)phenyl]amino}propyl]-N-[2-(dimethylamino)ethyl]biphenyl-3-carboxamide hydrochloride]
IC50 [1]: 8.9 nM
aPTT [2]: 0.22 µmol/L

Cc1ccc(S(=O)(=O)N(C)C)cc1-c1cccc(C[C@H](NC(=O)[C@H]2CC[C@H](CN)CC2)C(=O)Nc2ccc3[nH]c(=O)[nH]c3c2)c1 [Example 44, trans-4-(Aminomethyl)-N-{(2S)-3-[5′-(dimethylsulphamoyl)-2′-methylbiphenyl-3-yl]-1-oxo-1-[(2-oxo-2,3-dihydro-1H-benzimidazol-5-yl)amino]propan-2-yl}cyclohexanecarboxamide hydrochloride]
IC50 [1]: 13 nM
aPTT [2]: 0.28 µmol/L

COCCOCCOCCNC(=O)c1cccc(-c2cc(C[C@H](NC(=O)[C@H]3CC[C@H](CN)CC3)C(=O)Nc3ccc(-c4nnn[nH]4)cc3)ccc2C)c1 [Example 18, 5′-[(2S)-2-({[trans-4-(Aminomethyl)cyclohexyl]carbonyl}amino)-3-oxo-3-{[4-(1H-tetrazol-5-yl)phenyl]amino}propyl]-N-{2-[2-(2-methoxyethoxy)ethoxy]ethyl}-2′-methylbiphenyl-3-carboxamide hydrochloride]
IC50 [1]: 5.7 nM
aPTT [2]: 0.4 µmol/L

CN(C)CCCOc1ccc(-c2cccc(C[C@H](NC(=O)[C@H]3CC[C@H](CN)CC3)C(=O)Nc3ccc(-c4nc(C(F)(F)C(F)(F)C(=O)O)n[nH]4)cc3)c2)cn1 [Example 109, hydrochloride]
IC50 [1]: 6 nM
aPTT [2]: 0.16 µmol/L

NC[C@H]1CC[C@H](C(=O)N[C@@H](Cc2cccc(-c3cncc(S(=O)(=O)NC4CCNCC4)c3)c2)C(=O)Nc2ccc(-c3nnc(Cl)[nH]3)cc2)CC1 [Example 106, N-alpha-{[trans-4-(Aminomethyl)cyclohexyl]carbonyl}-N-[4-(3-chloro-4H-1,2,4-triazol-5-yl)phenyl]-3-[5-(piperidin-4-ylsulphamoyl)pyridin-3-yl]-L-phenylalaninamide hydrochloride]
IC50 [1]: 5.7 nM
aPTT [2]: 0.13 µmol/L

Cc1ccc(S(=O)(=O)N2CCOCC2)cc1-c1cccc(C[C@H](NC(=O)[C@H]2CC[C@H](CN)CC2)C(=O)Nc2ccc(-c3noc(=O)[nH]3)cc2)c1 [Example 52, trans-4-(Aminomethyl)-N-[(2S)-3-[2′-methyl-5′-(morpholin-4-ylsulphonyl)biphenyl-3-yl]-1-oxo-1-{[4-(5-oxo-4,5-dihydro-1,2,4-oxadiazol-3-yl)phenyl]amino}propan-2-yl]cyclohexanecarboxamide hydrochloride]
IC50 [1]: 1.8 nM
aPTT [2]: 0.06 µmol/L

NC[C@H]1CC[C@H](C(=O)N[C@@H](Cc2cccc(-c3cccc(C(=O)NCCN4CCOCC4)c3)c2)C(=O)Nc2ccc(-c3nnn[nH]3)cc2)CC1 [Example 29, 3′-[(2S)-2-({[trans-4-(Aminomethyl)cyclohexyl]carbonyl}amino)-3-oxo-3-{[4-(1H-tetrazol-5-yl)phenyl]amino}propyl]-N-[2-(morpholin-4-yl)ethyl]biphenyl-3-carboxamide hydrochloride]
IC50 [1]: 5.5 nM
aPTT [2]: 0.37 µmol/L

NC[C@H]1CC[C@H](C(=O)N[C@@H](Cc2cccc(-c3cccc(C(=O)NCCN4CCCC4)c3)c2)C(=O)Nc2ccc(-c3nnn[nH]3)cc2)CC1 [Example 61, 3′-[(2S)-2-({[trans-4-(Aminomethyl)cyclohexyl]carbonyl}amino)-3-oxo-3-{[4-(1H-tetrazol-5-yl)phenyl]amino}propyl]-N-[2-(pyrrolidin-1-yl)ethyl]biphenyl-3-carboxamide hydrochloride]
IC50 [1]: 12 nM
aPTT [2]: 0.37 µmol/L

Cc1ccc(C[C@H](NC(=O)[C@H]2CC[C@H](CN)CC2)C(=O)Nc2ccc(-c3nnn[nH]3)cc2)cc1-c1cccc(C(=O)N2CCOCC2)c1 [Example 17, trans-4-(Aminomethyl)-N-[(2S)-3-[6-methyl-3′-(morpholin-4-ylcarbonyl)biphenyl-3-yl]-1-oxo-1-{[4-(1H-tetrazol-5-yl)phenyl]amino}propan-2-yl]cyclohexanecarboxamide hydrochloride]
IC50 [1]: 4.1 nM
aPTT [2]: 0.19 µmol/L

Cc1ccc2[nH]ncc2c1-c1cccc(C[C@H](NC(=O)[C@H]2CC[C@H](CN)CC2)C(=O)Nc2ccc(-c3noc(=O)[nH]3)cc2)c1 [Example 87, N-alpha-{[trans-4-(Aminomethyl)cyclohexyl]carbonyl}-3-(5-methyl-1H-indazol-4-yl)-N-[4-(5-oxo-4,5-dihydro-1,2,4-oxadiazol-3-yl)phenyl]-L-phenylalaninamide hydrochloride]
IC50 [1]: 3.5 nM
aPTT [2]: 0.49 µmol/L
